From patent publication US12435044B2, “Pyridazinone herbicides and pyridazinone intermediates used to prepare a herbicide” (FMC Corporation, priority 2018, dated 2025)

What was measured:
Experiment in all cases: Test E pre-/postemergence greenhouse test
Type in all cases: in vivo
soybean (Glycine max) = tested on: soybean (Glycine max)
Excerpt: (§1) Seeds of plant species selected from corn (Zea mays), soybean (Glycine max), velvetleaf (Abutilon theophrasti), lambsquarters (Chenopodium album), poinsettia, wild (Euphorbia heterophylla), pigweed, palmer (Amaranthus palmeri), waterhemp (common waterhemp, Amaranthus rudis), surinam grass (Brachiaria decumbens), crabgrass, large (Digitaria sanguinalis), crabgrass, Brazil (Digitaria horizontalis), panicum, fall (Panicum dichotomiflorum), foxtail, giant (Setaria faberii), foxtail, green (Setaria viridis), goosegrass (Eleusine indica), johnsongrass (Sorghum halepense), ragweed (common ragweed, Ambrosia elatior), barnyardgrass (Echinochloa crus-galli), sandbur (southern sandbur, Cenchrus echinatus), arrowleaf sida (Sida rhombifolia), ryegrass, Italian (Lolium multiflorum), dayflower, VA (Virginia (VA) dayflower, Commelina virginica), field bindweed (Convolvulus arvensis), morningglory (Ipomoea coccinea), horseweed (Conyza canadensis), kochia (Kochia scoparia), nutsedge, yellow (Cyperus esculentus) and hairy beggarticks (Bidenspilosa), were planted into a silt loam soil and treated preemergence with test chemicals formulated in a non-phytotoxic solvent mixture which included a surfactant.
(§2) At the same time, plants selected from these crop and weed species and also waterhemp_RES1, (ALS & Triazine resistant common waterhemp, Amaranthus rudis), and waterhemp_RES2, (ALS & HPPD resistant common waterhemp, Amaranthus rudis) were planted in pots containing Redi-Earth® planting medium (Scotts Company, 14111 Scottslawn Road, Marysville, Ohio 43041) comprising spaghnum peat moss, vermiculite, wetting agent and starter nutrients were treated with postemergence applications of test chemicals formulated in the same manner. Plants ranged in height from 2 to 18 cm for postemergence treatments (1- to 4-leaf stage). Treated plants and controls were maintained in a greenhouse for 14 to 21 d, after which time all species were compared to controls and visually evaluated. Plant response ratings, summarized in Table E, are based on a scale of 0 to 100 where 0 is no effect and 100 is complete control. A dash (-) response means no test result.

[1] = tested on: pigweed, palmer (Amaranthus palmeri)
Excerpt: as §1, §2

[2] = tested on: panicum, fall (Panicum dichotomiflorum)
Excerpt: as §1, §2

[3] = tested on: barnyardgrass (Echinochloa crus-galli); settings: Preemergence
Excerpt: as §1, §2

[4] = tested on: surinam grass (Brachiaria decumbens); settings: Preemergence
Excerpt: as §1, §2

[5] = tested on: waterhemp (common waterhemp, Amaranthus rudis)
Excerpt: as §1, §2

[6] = tested on: horseweed (Conyza canadensis); settings: Postemergence
Excerpt: as §1, §2

[7] = tested on: crabgrass, large (Digitaria sanguinalis); settings: Preemergence
Excerpt: as §1, §2

corn (Zea mays) = tested on: corn (Zea mays)
Excerpt: as §1, §2

[8] = tested on: velvetleaf (Abutilon theophrasti); settings: Preemergence
Excerpt: as §1, §2

[9] = tested on: ragweed (common ragweed, Ambrosia elatior)
Excerpt: as §1, §2

## Cc1ccc2ccc(C)c(-c3c(O)c(Cl)nn(C)c3=O)c2c1 [Cpd. No. 20, 6-chloro-4-(2,7-dimethyl-1-naphthalenyl)-5-hydroxy-2-methyl-3(2H)-pyridazinone]
Soybean (Glycine max); Postemergence, 16 g ai/ha
  Plant response rating, Soybean: 10
Soybean (Glycine max); Postemergence, 31 g ai/ha
  Plant response rating, Soybean: 15
Soybean (Glycine max); Postemergence, 62 g ai/ha
  Plant response rating, Soybean: 30
Soybean (Glycine max); Postemergence, 125 g ai/ha
  Plant response rating, Soybean: 40
Soybean (Glycine max); Preemergence, 16 g ai/ha
  Plant response rating, Soybean: 0
Soybean (Glycine max); Preemergence, 62 g ai/ha
  Plant response rating, Soybean: 15
Soybean (Glycine max); Preemergence, 125 g ai/ha
  Plant response rating, Soybean: 0
[1]; Postemergence, 16 g ai/ha
  Plant response rating, Pigweed, Palmer: 60
[1]; Postemergence, 31 g ai/ha
  Plant response rating, Pigweed, Palmer: 65
[1]; Postemergence, 62 g ai/ha
  Plant response rating, Pigweed, Palmer: 70
[1]; Postemergence, 125 g ai/ha
  Plant response rating, Pigweed, Palmer: 60
[1]; Preemergence, 16 g ai/ha
  Plant response rating, Pigweed, Palmer: 20
[1]; Preemergence, 31 g ai/ha
  Plant response rating, Pigweed, Palmer: 35
[1]; Preemergence, 62 g ai/ha
  Plant response rating, Pigweed, Palmer: 95
[1]; Preemergence, 125 g ai/ha
  Plant response rating, Pigweed, Palmer: 98
[2]; Postemergence, 16 g ai/ha
  Plant response rating, Panicum, Fall: 70
[2]; Postemergence, 31 g ai/ha
  Plant response rating, Panicum, Fall: 90
[2]; Postemergence, 62 g ai/ha
  Plant response rating, Panicum, Fall: 90
[2]; Postemergence, 125 g ai/ha
  Plant response rating, Panicum, Fall: 95
[2]; Preemergence, 16 g ai/ha
  Plant response rating, Panicum, Fall: 75
[2]; Preemergence, 31 g ai/ha
  Plant response rating, Panicum, Fall: 98
[2]; Preemergence, 62 g ai/ha
  Plant response rating, Panicum, Fall: 98
[2]; Preemergence, 125 g ai/ha
  Plant response rating, Panicum, Fall: 100
[3]; 16 g ai/ha
  Plant response rating, Barnyardgrass: 0
[3]; 31 g ai/ha
  Plant response rating, Barnyardgrass: 75
[3]; 62 g ai/ha
  Plant response rating, Barnyardgrass: 80
[3]; 125 g ai/ha
  Plant response rating, Barnyardgrass: 100
[4]; 16 g ai/ha
  Plant response rating, Surinam Grass: 35
[4]; 31 g ai/ha
  Plant response rating, Surinam Grass: 80
[4]; 62 g ai/ha
  Plant response rating, Surinam Grass: 90
[4]; 125 g ai/ha
  Plant response rating, Surinam Grass: 100
[5]; Postemergence, 16 g ai/ha
  Plant response rating, Waterhemp: 75
[5]; Postemergence, 31 g ai/ha
  Plant response rating, Waterhemp: 75
[5]; Postemergence, 62 g ai/ha
  Plant response rating, Waterhemp: 95
[5]; Postemergence, 125 g ai/ha
  Plant response rating, Waterhemp: 90
[5]; Preemergence, 16 g ai/ha
  Plant response rating, Waterhemp: 60
[5]; Preemergence, 31 g ai/ha
  Plant response rating, Waterhemp: 70
[5]; Preemergence, 62 g ai/ha
  Plant response rating, Waterhemp: 98
[5]; Preemergence, 125 g ai/ha
  Plant response rating, Waterhemp: 100
[6]; 16 g ai/ha
  Plant response rating, Horseweed: 80
[6]; 31 g ai/ha
  Plant response rating, Horseweed: 75
[6]; 62 g ai/ha
  Plant response rating, Horseweed: 85
[6]; 125 g ai/ha
  Plant response rating, Horseweed: 80
[7]; 16 g ai/ha
  Plant response rating, Crabgrass, Large: 65
[7]; 31 g ai/ha
  Plant response rating, Crabgrass, Large: 65
[7]; 62 g ai/ha
  Plant response rating, Crabgrass, Large: 75
[7]; 125 g ai/ha
  Plant response rating, Crabgrass, Large: 80
Corn (Zea mays); Postemergence, 16 g ai/ha
  Plant response rating, Corn: 5
Corn (Zea mays); Postemergence, 31 g ai/ha
  Plant response rating, Corn: 20
Corn (Zea mays); Postemergence, 62 g ai/ha
  Plant response rating, Corn: 10
Corn (Zea mays); Postemergence, 125 g ai/ha
  Plant response rating, Corn: 10
Corn (Zea mays); Preemergence, 16 g ai/ha
  Plant response rating, Corn: 0
Corn (Zea mays); Preemergence, 31 g ai/ha
  Plant response rating, Corn: 0
Corn (Zea mays); Preemergence, 62 g ai/ha
  Plant response rating, Corn: 0
Corn (Zea mays); Preemergence, 125 g ai/ha
  Plant response rating, Corn: 0
[8]; 16 g ai/ha
  Plant response rating, Velvetleaf: 50
[8]; 31 g ai/ha
  Plant response rating, Velvetleaf: 80
[8]; 62 g ai/ha
  Plant response rating, Velvetleaf: 90
[8]; 125 g ai/ha
  Plant response rating, Velvetleaf: 100
[9]; Postemergence, 16 g ai/ha
  Plant response rating, Ragweed: 90
[9]; Postemergence, 31 g ai/ha
  Plant response rating, Ragweed: 85
[9]; Postemergence, 62 g ai/ha
  Plant response rating, Ragweed: 95
[9]; Postemergence, 125 g ai/ha
  Plant response rating, Ragweed: 95
[9]; Preemergence, 16 g ai/ha
  Plant response rating, Ragweed: 60
[9]; Preemergence, 31 g ai/ha
  Plant response rating, Ragweed: 95
[9]; Preemergence, 62 g ai/ha
  Plant response rating, Ragweed: 95
[9]; Preemergence, 125 g ai/ha
  Plant response rating, Ragweed: 98
